Data taken from patent EP0357495A2, “3'Azido-3'-deoxythymidine (AZT) derivatives active against the AIDS virus” (IRE-CELLTARG S.A., priority 1988, dated 1990).

Assays:
[1] = tested on: lignées cellulaires continues; experiment: in vitro toxicity on continuous cell lines (MTT method); assay type: cell-based; details: all cell lines tested, comparison with AZT; tableau 8 is an image
Text: Dans le but d'évaluer la toxicité du dérivé 5′hémisuccinyl de l'AZT, des expériences ont été réalisées sur différentes lignées cellulaires continues.
L'AZT et son dérivé 5′hémisuccinyl à différentes concentrations ont été mis en présence de cellules en phase de croissance. Le nombre de cellules vivantes a été déterminé par la méthode au MTT après 1, 2, 3 et 4 jours de culture. La cytotoxicité a été mesurée et est exprimée sous forme de CD₅₀.
Les lignées cellulaires continues utilisées sont les suivantes : - Cellules en suspension : [formula] - Cellules adhérentes : Hep-G2 : hépatocarcinome humain Hep-2 : carcinome épidermoïde humain
Les résultats sont repris au tableau 8.

[2] = tested on: virus HIV-1 (souche HTLV-IIIB); experiment: viral antigen assay in HIV-infected human peripheral blood lymphocytes; assay type: cell-based; details: day 14 of culture
Text: Les lymphocytes ont été extraits d'un concentré plaquettaire par séparation sur gradient de Ficoll et élimination des adhérentes. Après 3 jours de stimulation par la phytohémaglutinine, ils ont été transférés dans un milieu additionné d'interleukine-2 (IL-2) est infectés par le virus HIV-1 (souche HTLV-IIIB). L'AZT et son dérivé 5′ hémisuccinate à différentes concentrations ont été rajoutés aux cellules au moment de l'infection.
Trois jours après l'infection, le milieu a été remplacé par du milieu frais additionné d'IL-2, contenant les produits aux concentrations désirées pour la moitié des cellules, et ne contenant plus de produit pour l'autre moitié. Ensuite, le milieu des cellules a été remplacé à moitié par du milieu frais additionné d'IL-2, contenant ou non les produits aux concentrations désirées, tous les 3 à 4 jours.
La multiplication du virus a été suivie par dosage des antigènes viraux dans les surnageants de culture (Innotest HIV-Organon Teknika).

[3] = in vivo toxicity, intraperitoneal, 5-day-old NMRI mice; design: species or system souriceaux NMRI; details: AZT-5′hémisuccinyl, i.p.
Protocol: L'AZT et son dérivé 5′hémisuccinyl ont été administrés par voie infra-péritonéale à de souriceaux NMRI âgés de 5 jours (100 µl/g de poids corporel). Les animaux ont été contrôlés tous les jours selon 2 critères : survie et poids pendant 25 jours.
Les résultats sont repris au tableau 9. Les souriceaux traités n'ont pas montre de différence significative dans la prise de poids par rapport aux contrôles. Tableau 9

Cc1cn([C@H]2C[C@H](N=[N+]=[N-])[C@@H](COC(=O)CCC(=O)O)O2)c(=O)[nH]c1=O [AZT 5′hémisuccinyl, 5′-hémisuccinyl-3′-azido-3′-déoxythymidine]
toxicité sur lignées cellulaires continues (in words) [1]: moins toxique que l'AZT
ED₅₀ ([2]; durée d'administration 3 jours): 0.078 µM
ED₅₀ ([2]; durée d'administration 14 jours): 0.057 µM
Survivants au jour 25 ([3]; dose 1 g/kg poids corporel (équivalent AZT 0.73)): 100%
Survivants au jour 25 ([3]; dose 2 g/kg poids corporel (équivalent AZT 1.46)): 100%
Survivants au jour 25 ([3]; dose 3 g/kg poids corporel (équivalent AZT 2.2)): 50%
mortalité/jour ([3]; dose 3 g/kg poids corporel (équivalent AZT 2.2), au jour 1): (50 % au jour 1)
